Several values for one entry are separate records, joined by “and”; a condition that tells them apart may be missing. Equal entries are not always repeated.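 In this assay, cells in 96-well plates receive the compound at five concentrations for 48 hours. Endpoints are linearly interpolated between the surrounding concentrations. Abbreviation: GI50, concentration required for 50% inhibition of growth. TGI denotes the concentration required for complete inhibition of growth.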

Among the test systems are RPMI-8226 leukemia; HOP-92 NSCLC; MOLT-4 leukemia; NCI-H226 lung; SF-295 CNS; SF-268 CNS; NCI-H460 lung; SF-539 CNS; M14 melanoma; SK-OV-3 ovarian.
Common to all, as to assay: NCI tumour cell line growth inhibition, 48 h

For the molecule `Cc1ccc(C2=C(c3ccccc3)C(Br)(c3ccccc3)C(c3ccccc3)=C2c2ccc(C)cc2)cc1`, the TGI in the assay with RPMI-8226 leukemia, in the assay on HOP-92 NSCLC, with MOLT-4 leukemia, in the assay on NCI-H226 lung, in the assay on SF-295 CNS and in the assay with SF-268 CNS was over 100 µM throughout. The TGI in the assay with NCI-H460 lung, in the assay on SF-539 CNS, in the assay on M14 melanoma and in the assay on SK-OV-3 ovarian was over 100 µM each time.
For the molecule `CC12CC3CC(C1)CC(N=[N+]=[N-])(C3)C2`, the TGI in the assay with RPMI-8226 leukemia, with HOP-92 NSCLC, in the assay on MOLT-4 leukemia, with NCI-H226 lung, with SF-295 CNS and in the assay with NCI-H460 lung was over 100 µM throughout. Besides, the TGI with SF-539 CNS, in the assay with M14 melanoma and in the assay with SK-OV-3 ovarian was over 100 µM each time.
On to `Cc1nn(-c2nc3ccccc3[nH]2)c2c1C(c1ccc3c(c1)OCO3)CC(=O)N2` (stereo unspecified), for which the GI50 with RPMI-8226 leukemia was 2.22 µM; in the assay with HOP-92 NSCLC, 2.66 µM; with MOLT-4 leukemia, 0.0422 µM; in the assay with NCI-H226 lung, 2.45 µM; with SF-295 CNS, 1.81 µM; in the assay on SF-268 CNS it was 3.38 µM. The GI50 with NCI-H460 lung was 2.36 µM; in the assay on SF-539 CNS, 2.16 µM; with M14 melanoma, 2.31 µM; with SK-OV-3 ovarian it was 2.63 µM. The TGI came to 5.02 µM with RPMI-8226 leukemia; 7.14 µM in the assay on HOP-92 NSCLC; 0.214 µM in the assay with MOLT-4 leukemia; 7.09 µM in the assay on NCI-H226 lung; 4.38 µM in the assay with SF-295 CNS; 11.7 µM in the assay on SF-268 CNS. In addition, the TGI stood at 5.55 µM in the assay on NCI-H460 lung, 4.82 µM with SF-539 CNS, 5.98 µM in the assay on M14 melanoma and 5.77 µM with SK-OV-3 ovarian.
In the case of `CC(C)(c1ccc(OC#N)cc1)c1ccc(OC#N)cc1`, the TGI with RPMI-8226 leukemia is over 72.5 µM; in the assay with HOP-92 NSCLC it was over 100 µM; with MOLT-4 leukemia, over 100 µM; with NCI-H226 lung it was over 100 µM; in the assay on SF-295 CNS, over 100 µM; in the assay with SF-268 CNS, over 100 µM. For the same molecule, the TGI in the assay with NCI-H460 lung was over 82.4 µM; in the assay with SF-539 CNS, over 100 µM; in the assay with M14 melanoma, over 100 µM; in the assay on SK-OV-3 ovarian, over 100 µM.
Regarding `CC(=O)c1c[nH]cc1CO`, the TGI with RPMI-8226 leukemia, in the assay on HOP-92 NSCLC, with MOLT-4 leukemia, with NCI-H226 lung, with SF-295 CNS and in the assay on SF-268 CNS was over 10 µM each time. Also, the TGI in the assay with NCI-H460 lung, in the assay on SF-539 CNS, in the assay with M14 melanoma and in the assay with SK-OV-3 ovarian was over 10 µM each time.
In the case of `O=C(/C=C1/NC(=O)CS1)Nc1ccccc1`, the TGI in the assay on RPMI-8226 leukemia, in the assay on HOP-92 NSCLC, in the assay with MOLT-4 leukemia, in the assay on NCI-H226 lung, with SF-295 CNS and in the assay with SF-268 CNS was over 100 µM each time. Further, the TGI in the assay with NCI-H460 lung, in the assay with SF-539 CNS, in the assay with M14 melanoma and in the assay on SK-OV-3 ovarian was over 100 µM in each case.
Regarding `COc1ccc2c(c1)CC1c3c(cc4c(c3-2)OCO4)CCN1C` (stereo unspecified), the TGI is 64.2 µM with RPMI-8226 leukemia; 57 µM in the assay on HOP-92 NSCLC; 64.9 µM in the assay with MOLT-4 leukemia; 64.9 µM in the assay on NCI-H226 lung; 50 µM in the assay on SF-295 CNS; 60.4 µM in the assay on NCI-H460 lung. The TGI is over 100 µM in the assay on SF-539 CNS, 62.9 µM in the assay on M14 melanoma and 69.1 µM in the assay on SK-OV-3 ovarian.
For the molecule `COC(=O)[C@@H](C)C[C@H](Cc1ccccc1)NC(=O)c1csc([C@@H](C[C@H](C(C)C)N(C)C(=O)C2(NC(=O)[C@H]3CCCCN3C)CC2)OC(C)=O)n1`, the GI50 was 0.000613 µM and 0.00333 µM with RPMI-8226 leukemia; 0.00434 µM and 0.00333 µM with HOP-92 NSCLC; 0.00965 µM and 0.00333 µM in the assay with MOLT-4 leukemia; 0.00333 µM with NCI-H226 lung; 0.0251 µM and 0.00333 µM in the assay on SF-295 CNS; 0.0111 µM and 0.00333 µM in the assay on NCI-H460 lung. Also, the GI50 was 0.00868 µM and < 0.00333 µM in the assay with SF-539 CNS; 0.00504 µM and 0.00333 µM in the assay with M14 melanoma; 0.0183 µM and < 0.00333 µM in the assay on SK-OV-3 ovarian. For the same molecule, the TGI in the assay on RPMI-8226 leukemia was 17 µM; in the assay with HOP-92 NSCLC, 5.29 µM; in the assay on MOLT-4 leukemia it was over 33.3 µM; with NCI-H226 lung it was over 33.3 µM; in the assay with SF-295 CNS, over 33.3 µM; in the assay on SF-268 CNS it was over 33.3 µM. In addition, the TGI is over 33.3 µM with NCI-H460 lung, 0.468 µM in the assay with M14 melanoma and under 0.00333 µM with SK-OV-3 ovarian.
As to `N#Cc1nc2cc(F)c(F)cc2nc1-c1ccc(Cl)cc1`, the GI50 with RPMI-8226 leukemia was 6.17 µM; in the assay with HOP-92 NSCLC it was 0.0614 µM; with MOLT-4 leukemia, 3.21 µM; in the assay with NCI-H226 lung, 3.44 µM; in the assay on SF-295 CNS, 12.2 µM; with SF-268 CNS, 8.07 µM. Besides, the GI50 with NCI-H460 lung is 57.5 µM; in the assay on SF-539 CNS it was over 60.6 µM; with M14 melanoma, 7.93 µM; with SK-OV-3 ovarian, over 46.7 µM. Besides, the TGI in the assay on RPMI-8226 leukemia is over 100 µM; in the assay on HOP-92 NSCLC, 15 µM; in the assay on MOLT-4 leukemia, over 28.3 µM; in the assay with NCI-H226 lung it was over 63.2 µM; in the assay on SF-295 CNS it was 38.9 µM; with SF-268 CNS, 30.2 µM. Further, the TGI with NCI-H460 lung was over 100 µM; in the assay on SF-539 CNS, over 100 µM; with M14 melanoma, 23.8 µM; with SK-OV-3 ovarian, over 88 µM.
Take `N#CC(C#N)=C1SCC(=O)CS1`: the TGI in the assay on RPMI-8226 leukemia, in the assay on HOP-92 NSCLC, in the assay with MOLT-4 leukemia, in the assay on NCI-H226 lung, with SF-295 CNS and with SF-268 CNS was over 100 µM each time. Also, the TGI in the assay on NCI-H460 lung, with SF-539 CNS, in the assay on M14 melanoma and in the assay on SK-OV-3 ovarian was over 100 µM in each case.
